The values that follow come from patent US20110166121A1 (LG LIFE SCIENCES LTD., priority 2008, published 2011).

In the test the test system is Human platelet aggregation caused by ADP. As to the kind of experiment: Inhibition of ADP-induced platelet aggregation (Mimic-human PRP). Format: cell-based. The note with it: 20 μM ADP, human platelet concentrate diluted with PPP, absorption at 595 nm. As to the method: Platelet Preparation for Aggregation Studies
Human platelet aggregation reaction test is a functional experiment method to verify whether a test compound is an agonist or an antagonist to ADP receptor. […] The platelet product isolated from whole blood was purchased from Chung-Nam blood center (Dae-joen, South Korea). The platelet was isolated from 400 mL of whole blood containing 56 mL of CPDA-1 anticoagulant. To isolate the platelet product, 400 mL of whole blood was centrifuged at 260×g for 5 minutes, and then obtained PRP (platelet rich plasma) was secondary centrifuged at 370×g for 6 minutes. Platelet pellet (10^9/mL) was suspended with 45 mL of plasma and then agitated over 1 hour at 22° C. blood reservoir to stabilize it. The stabilized platelet product was used in the experiment within 24 hours. PCs (Platelet Concentrates) were gently transferred to a new 50 ml-falcon tube. The number of platelet was counted by using animal blood counter (ABC Vet, ABX diagnostics, France). The volume of 30 mL of PCs collected from same donor was centrifuged at 1500 g for 10 min at room temperature to prepare platelet-poor plasma (PPP). The platelet count was adjusted to platelet number of 3˜4×10^8/mL by diluting with PPP.
Evaluation on Inhibitory Effect of ADP-Induced Aggregation
Inhibition of ADP-induced aggregation was determined in 96-well flat-bottom plates (Costar, USA) at room temperature. The diluted platelet was aliquoted into each well of 96 well plate in the volume of 188 μl. […] The platelet including test compounds was immediately mixed on a shaker at 1050 rpm for 1 min and incubated at room temperature for 20 min. Then, 10 μL volume of 400 μM ADP was added: the final concentration of 20 μM ADP in the total reaction volume of 0.2 mL/well. After shaking of the plate at room temperature for 3 min, the absorption of the samples was determined at 595 nm using a microtiter plate reader (Softmax, Molecular Devices).
A dose-dependent curve on serial dilutions of ADP was accomplished by adding vehicle (DMSO) instead of antagonists in order to calculate EC50 of ADP. Inhibition of aggregation was calculated from the increase of absorption at 595 nm at 3 min of the reaction incubation, compared to results of absorption between the 0 and 20 μM ADP control without antagonists. Sigmoidal dose-response curves and Ki were derived by non-linear regression analysis using the Prism software (GraphPad, San Diego Calif.).

Counter-ions that a name gives are not always drawn.

The molecule `CCCc1cc2c(N3CCn4c(nnc4C(F)(F)F)C3)nc(N3CC(NC(C)=O)C(OC(C)=O)C3)nc2s1` (stereo not shown) [Example 7-18, Acetic acid 4-acetylamino-1-[6-propyl-4-(3-trifluoromethyl-5,6-dihydro-8H-[1,2,4]triazolo[4,3-a]pyrazin-7-yl)-thieno[2,3-d]pyrimidin-2-yl]-pyrrolidin-3-yl ester] showed a Ki of 6.5 nM. The figure for `CCCC(=O)NC1CN(c2nc(N3CCn4c(nnc4C(F)(F)F)C3)c3cc(CCC)sc3n2)CC1O` (stereo not shown) [Example 7-19, N-{4-Hydroxy-1-[6-propyl-4-(3-trifluoromethyl-5,6-dihydro-8H-[1,2,4]triazolo[4,3-a]pyrazin-7-yl)-thieno[2,3-d]pyrimidin-2-yl]-pyrrolidin-3-yl}-butyramide] is 5 nM.

Molecule `CCCc1cc2c(N3CCn4c(nnc4C(F)(F)F)C3)nc(N3CC(O)C(NC(=O)C(C)C)C3)nc2s1` (stereo not shown) [Example 7-20, N-{4-Hydroxy-1-[6-propyl-4-(3-trifluoromethyl-5,6-dihydro-8H-[1,2,4]triazolo[4,3-a]pyrazin-7-yl)-thieno[2,3-d]pyrimidin-2-yl]-pyrrolidin-3-yl}-isobutyramide] returned a Ki of 4.8 nM. Take `CCCc1cc2c(N3CCn4c(nnc4C(F)(F)F)C3)nc(N3CC(O)C(NC(=O)C(C)(C)C)C3)nc2s1` (stereo not shown) [Example 7-21, N-{4-Hydroxy-1-[6-propyl-4-(3-trifluoromethyl-5,6-dihydro-8H-[1,2,4]triazolo[4,3-a]pyrazin-7-yl)-thieno[2,3-d]pyrimidin-2-yl]-pyrrolidin-3-yl}-2,2-dimethyl-propionamide]: the inhibition constant Ki amounted to 21 nM. The figure for `CCCc1cc2c(N3CCn4c(nnc4C(F)(F)F)C3)nc(N3CC(O)C(NC(=O)CO)C3)nc2s1` (stereo not shown) [Example 7-22, 2-Hydroxy-N-{4-hydroxy-1-[6-propyl-4-(3-trifluoromethyl-5,6-dihydro-8H-[1,2,4]triazolo[4,3-a]pyrazin-7-yl)-thieno[2,3-d]pyrimidin-2-yl]-pyrrolidin-3-yl}-acetamide] is 4 nM; for `CCCc1cc2c(N3CCn4c(nnc4C(F)(F)F)C3)nc(N3CC(O)C(NC(=O)C(C)(C)O)C3)nc2s1` (stereo not shown) [Example 7-23, 2-Hydroxy-N-{4-hydroxy-1-[6-propyl-4-(3-trifluoromethyl-5,6-dihydro-8H-[1,2,4]triazolo[4,3-a]pyrazin-7-yl)-thieno[2,3-d]pyrimidin-2-yl]-pyrrolidin-3-yl}-2-methyl-propionamide] it is 12 nM; for `CCCc1cc2c(N3CCn4c(nnc4C(F)(F)F)C3)nc(N3CC(O)C(NC(=O)C(C)(CO)CO)C3)nc2s1` (stereo not shown) [Example 7-24, 3-Hydroxy-2-hydroxymethyl-N-{4-hydroxy-1-[6-propyl-4-(3-trifluoromethyl-5,6-dihydro-8H-[1,2,4]triazolo[4,3-a]pyrazin-7-yl)-thieno[2,3-d]pyrimidin-2-yl]-pyrrolidin-3-yl}-2-methyl-propionamide] it is 15 nM.

In the case of `CCCc1cc2c(N3CCn4c(nnc4C(F)(F)F)C3)nc(N3CC(O)C(NC(=O)C(C)(C)CO)C3)nc2s1` (stereo not shown) [Example 7-25, 3-Hydroxy-N-{4-hydroxy-1-[6-propyl-4-(3-trifluoromethyl-5,6-dihydro-8H-[1,2,4]triazolo[4,3-a]pyrazin-7-yl)-thieno[2,3-d]pyrimidin-2-yl]-pyrrolidin-3-yl}-2,2-dimethyl-propionamide], the affinity, expressed as Ki, was 18 nM. Under `CCCc1cc2c(N3CCn4c(nnc4C(F)(F)F)C3)nc(N3CC4OC(=O)N[C@H]4C3)nc2s1` (stereo partly drawn) [Example 7-26, (S)-5-[6-Propyl-4-(3-trifluoromethyl-5,6-dihydro-8H-[1,2,4]triazolo[4,3-a]pyrazin-7-yl)-thieno[2,3-d]pyrimidin-2-yl]-hexahydro-pyrrolo[3,4-d]oxazol-2-one] stands 2.1 nM; under `CCCc1cc2c(N3CCn4c(nnc4C(F)(F)F)C3)nc(N3CC(N)C(N)C3)nc2s1` (stereo not shown) [Example 7-27, Di-hydrochloric acid salt of 1-[6-Propyl-4-(3-trifluoromethyl-5,6-dihydro-8H-[1,2,4]triazolo[4,3-a]pyrazin-7-yl)-thieno[2,3-d]pyrimidin-2-yl]-pyrrolidine-3,4-diamine], 17 nM; under `CCCc1cc2c(N3CCn4c(nnc4C(F)(F)F)C3)nc(N3CC(NC(C)=O)C(NC(C)=O)C3)nc2s1` (stereo not shown) [Example 7-28, N-{4-Acetylamino-1-[6-propyl-4-(3-trifluoromethyl-5,6-dihydro-8H-[1,2,4]triazolo[4,3-a]pyrazin-7-yl)-thieno[2,3-d]pyrimidin-2-yl]-pyrrolidin-3-yl}-acetamide], 42 nM. The figure for `CCCc1cc2c(N3CCn4c(nnc4C(F)(F)F)C3)nc(OCCNC(C)=O)nc2s1` [Example 7-29, N-{2-[6-Propyl-4-(3-trifluoromethyl-5,6-dihydro-8H-[1,2,4]triazolo[4,3-a]pyrazin-7-yl)-thieno[2,3-d]pyrimidin-2-yloxy]-ethyl}-acetamide] is 3.1 nM; for `CCCC(=O)NCCOc1nc(N2CCn3c(nnc3C(F)(F)F)C2)c2cc(CCC)sc2n1` [Example 7-30, N-{2-[6-Propyl-4-(3-trifluoromethyl-5,6-dihydro-8H-[1,2,4]triazolo[4,3-a]pyrazin-7-yl)-thieno[2,3-d]pyrimidin-2-yloxy]-ethyl}-butyramide] it is 7.2 nM; for `CCCc1cc2c(N3CCn4c(nnc4C(F)(F)F)C3)nc(OCCNC(=O)C(C)C)nc2s1` [Example 7-31, N-{2-[6-Propyl-4-(3-trifluoromethyl-5,6-dihydro-8H-[1,2,4]triazolo[4,3-a]pyrazin-7-yl)-thieno[2,3-d]pyrimidin-2-yloxy]-ethyl}-isobutyramide] it is 12 nM. The figure for `CCCc1cc2c(N3CCn4c(nnc4C(F)(F)F)C3)nc(OCCNC(=O)CO)nc2s1` [Example 7-32, 2-Hydroxy-N-{2-[6-propyl-4-(3-trifluoromethyl-5,6-dihydro-8H-[1,2,4]triazolo[4,3-a]pyrazin-7-yl)-thieno[2,3-d]pyrimidin-2-yloxy]-ethyl}-acetamide] is 0.8 nM; for `CCCc1cc2c(N3CCn4c(nnc4C(F)(F)F)C3)nc(OCCNC(=O)C(C)(C)O)nc2s1` [Example 7-33, 2-Hydroxy-2-methyl-N-{2-[6-propyl-4-(3-trifluoromethyl-5,6-dihydro-8H-[1,2,4]triazolo[4,3-a]pyrazin-7-yl)-thieno[2,3-d]pyrimidin-2-yloxy]-ethyl}-propionamide] it is 6.7 nM. In turn, `CCCc1cc2c(N3CCn4c(nnc4C(F)(F)F)C3)nc(OCCNC(=O)C(C)(CO)CO)nc2s1` [Example 7-34, 3-Hydroxy-2-hydroxymethyl-2-methyl-N-{2-[6-propyl-4-(3-trifluoromethyl-5,6-dihydro-8H-[1,2,4]triazolo[4,3-a]pyrazin-7-yl)-thieno[2,3-d]pyrimidin-2-yloxy]-ethyl}-propionamide] returned an inhibitory constant (Ki) of 16 nM. Consider `CCCc1cc2c(N3CCn4c(nnc4C(F)(F)F)C3)nc(OCCNC(=O)C(C)(C)CO)nc2s1` [Example 7-35, 3-Hydroxy-2,2-dimethyl-N-{2-[6-propyl-4-(3-trifluoromethyl-5,6-dihydro-8H-[1,2,4]triazolo[4,3-a]pyrazin-7-yl)-thieno[2,3-d]pyrimidin-2-yloxy]-ethyl}-propionamide], for which affinity was put at a Ki of 10 nM. The figure for `CCCc1cc2c(N3CCn4c(nnc4C(F)(F)F)C3)nc(OC[C@H]3CCCN3)nc2s1` [Example 7-36, Hydrochloric acid salt of 7-[6-Propyl-2-((R)-1-pyrrolidin-2-ylmethoxy)-thieno[2,3-d]pyrimidin-4-yl]-3-trifluoromethyl-5,6,7,8-tetrahydro-[1,2,4]triazolo[4,3-a]pyrazine] is 100 nM.

Regarding `CCCc1cc2c(N3CCn4c(nnc4C(F)(F)F)C3)nc(OC[C@@H]3CCCN3)nc2s1` [Example 7-37, Hydrochloric acid salt of 7-[6-Propyl-2-((S)-1-pyrrolidin-2-ylmethoxy)-thieno[2,3-d]pyrimidin-4-yl]-3-trifluoromethyl-5,6,7,8-tetrahydro-[1,2,4]triazolo[4,3-a]pyrazine], the Ki turned out to be 280 nM. The figure for `CCCc1cc2c(N3CCn4c(nnc4C(F)(F)F)C3)nc(NCCN)nc2s1` [Example 7-38, Hydrochloric acid salt of N-1-[6-Propyl-4-(3-trifluoromethyl-5,6-dihydro-8H-[1,2,4]triazolo[4,3-a]pyrazin-7-yl)-thieno[2,3-d]pyrimidin-2-yl]-ethane-1,2-diamine] is 50 nM; for `CCCc1cc2c(N3CCn4c(nnc4C(F)(F)F)C3)nc(N3CC[C@@H](CNC(C)=O)C3)nc2s1` [Example 8-1, N-{(S)-1-[6-Propyl-4-(3-trifluoromethyl-5,6-dihydro-8H-[1,2,4]triazolo[4,3-a]pyrazin-7-yl)-thieno[2,3-d]pyrimidin-2-yl]-pyrrolidin-3-ylmethyl}-acetamide] it is 35 nM.
